Measured values taken from article PMC2120106 (The Journal of Cell Biology, 1994).

What was measured:
[1] = tested on: vacuole-to-vacuole fusion; assay: in vitro vacuole-to-vacuole fusion assay; type: biochemical, Saccharomyces cerevisiae; conditions: for effect on in vitro vacuole-to-vacuole fusion (in words): added to standard reaction, Figs. 5, 7 A or data not shown; for effect on inter-vacuole fusion: Fig. 7 A
G-proteins = conditions: cited from earlier work; for stimulation of G-proteins in vitro: ref Oppi et al., 1992
isolated vacuoles = assay: microscopic in vitro fusion assay with CDCFDA-labeled vacuoles; design: species or system Saccharomyces cerevisiae; conditions: standard fusion reaction, 120 min; for vacuole fusion / morphology seen by fluorescence microscopy: 20 uM, Fig. 6 D, E, G, H

LNAKLKAIALALIK-NH2 [mas-PEP7]
effect on in vitro vacuole-to-vacuole fusion (in words) ([1]; 25C, 120 min): inactive in the fusion assay | stimulation of G-proteins in vitro (G-proteins): do not stimulate G-proteins in vitro

N#CC(C#N)=NNc1cccc(Cl)c1 [CCCP, carbonyl cyanide m-chlorophenyl-hydrazone]
effect on in vitro vacuole-to-vacuole fusion (in words) ([1]; 25C, 120 min): inhibited vacuole fusion in vitro | vacuole fusion / morphology seen by fluorescence microscopy (isolated vacuoles): blocked vacuole fusion

F [fluoride]
effect on in vitro vacuole-to-vacuole fusion (in words) ([1]; 25C, 120 min): inhibitory

INLQALALAALAQALL-NH2 [Mas7[Q4;Q11]]
relief of the inhibition caused by mas7 ([1]; both compounds added together, data not shown): did not relieve | effect on inter-vacuole fusion ([1]; concentrations up to 50 uM, standard reaction): did not inhibit | effect on inter-vacuole fusion ([1]; very high concentration, 100 uM, standard reaction): did inhibit | vacuole fusion / morphology seen by fluorescence microscopy (isolated vacuoles): only a weak influence | stimulation of G-proteins (G-proteins; ref Higashijima, T., personal communication): does not stimulate G-proteins

Lithium
effect on in vitro vacuole-to-vacuole fusion (in words) ([1]; 25C, 120 min): did not influence the fusion reactions

Triton X-100
influence on the inhibition of fusion by mastoparan ([1]; 0-30 ug/ml plus 20 uM mastoparan, Fig. 8): did not influence the effects of mastoparan on fusion | fusion in standard fusion reactions ([1]; added at 0.01%, data not shown): no fusion could be observed | effect on vacuole fusion ([1]; detergent control, up to highest concentration tested, 30 ug/ml, Fig. 8): did not inhibit vacuole fusion

NILALAKALIKALK-NH2 [mas-PEP8]
stimulation of G-proteins in vitro (G-proteins): potent G-protein activators

mastoparan
effect on in vitro vacuole-to-vacuole fusion (in words) ([1]; 25C, 120 min): inhibited

Nc1nc2c(ncn2[C@@H]2O[C@H](COP(=O)(O)OP(=O)(O)OP(O)(O)=S)[C@@H](O)[C@H]2O)c(=O)[nH]1 [GTP3,S, Guanosine 5'-0-(3-thiotriphosphate)]
vacuole fusion seen by fluorescence microscopy (isolated vacuoles; 1.0 mM, Fig. 6 F): fusion was largely inhibited

benzalkonium chloride [BAC]
concentration of maximal inhibition of inter-vacuolar fusion ([1]; alone in standard fusion assay, Fig. 8): 10 #g/ml

NC[C@@H]1O[C@H](O[C@H]2[C@@H](O)[C@H](O[C@@H]3[C@@H](O)[C@H](N)C[C@H](N)[C@H]3O[C@H]3O[C@H](CN)[C@@H](O)[C@H](O)[C@H]3N)O[C@@H]2CO)[C@H](N)[C@@H](O)[C@@H]1O [Neomycin]
concentration that blocks inter-vacuole fusion ([1]; standard reaction, 25C, 120 min, Fig. 5 A): 0.2 mM | vacuole fusion seen by fluorescence microscopy (isolated vacuoles; 0.6 mM, Fig. 6 C): blocked vacuole fusion

CO/C1=C\C(C)=C\[C@@H](C)[C@@H](O)[C@@H](C)C/C(C)=C/C=C/[C@H](OC)[C@@H]([C@@H](C)[C@@H](O)[C@H](C)[C@@]2(O)C[C@@H](O)[C@H](C)[C@@H](C(C)C)O2)OC1=O [bafilomycin Al]
effect on in vitro vacuole-to-vacuole fusion (in words) ([1]; 25C, 120 min): inhibited vacuole fusion in vitro | vacuole fusion / morphology seen by fluorescence microscopy (isolated vacuoles): blocked vacuole fusion

LKIALNLKALIAAK-NH2 [MAS-PEP2]
effect on in vitro vacuole-to-vacuole fusion (in words) ([1]; 25C, 120 min): inactive in the fusion assay | stimulation of G-proteins in vitro (G-proteins): do not stimulate G-proteins in vitro
